The values that follow come from US20110038997A1, “Method of processing poultry and other meat to reduce or eliminate Salmonella” (Birko Corporation, priority 2007, published 2011).

Common to all, as to assay type: cell-based
One assay concerns Salmonella culture (M61). In words: Log kill of Salmonella M61 in suspension, acid treatment, quench and plating on Salmonella Shigella agar. The procedure:
In each instance a target sample was employed using approximately 50 micro liters of a Salmonella culture (given the name “M61”) derived from a sample of chicken meal contaminated with chicken feces and approximately 1.5×10^7 cells per ml. […] The results obtained were consistent with the genus Salmonella.
(§1) The tests were performed at room temperature, e.g., 71 deg. […] The reaction was permitted to proceed for the time indicated for each test in Table 1, and was terminated by the introduction of a quench buffer comprising 4.2 M potassium phosphate buffer, pH 7.2. […] The plating medium was Salmonella Shigella agar, […]. The reduction in the bacteria count is expressed as the “log kill.” “Log kill” is generally defined as log10[initial cfu/ml]−log10[remaining cfu/ml].
An experiment was performed using the same protocol as in Example 1, except that the duration of treatment with the antimicrobial agent was maintained constant at 20 seconds. […] All tests were conducted at an ambient temperature of approximately 71 deg. F.
An experiment was performed using the same protocol as in Example 3. In this case, the target organism was a sample of “M61” Salmonella.

In assay [1] the test system is Salmonella enterica ATCC 14028. In words: Log kill of Salmonella enterica ATCC 14028 in suspension, plating on tryptic soy agar. The conditions noted are these: for Log Kill Salmonella (ATCC 14028) / Relative Kill Salmonella (ATCC 14028): 15 seconds. How it is done: as §1
Similar tests were performed using Salmonella enterica ATCC 14028 instead of the M61 Salmonella, and tryptic soy agar was employed instead of Salmonella Shigella agar.
The same tests were repeated using Salmonella enterica ATCC 14028 instead of the M61 Salmonella, and tryptic soy agar was employed instead of Salmonella Shigella agar.
The same tests were repeated using Salmonella enterica ATCC 14028 instead of Salmonella M61, and tryptic soy agar was employed instead of Salmonella shigella.
Another series of tests were performed as those resulting in Table VB, except that the acids were present in a total amount of 2%.

The subject of a further assay is Escherichia coli (SAC-2). In words: Log kill of E. coli SAC-2 by lactic/citric acid mixtures. The conditions noted are these: 2.5% acid, total; 15 seconds, 76 deg F. The procedure:
(§2) The tests were performed at room temperature, e.g., 71 deg. F. A reaction mixture was prepared including the Salmonella, water and the aqueous solution of lactic acid. The reaction was permitted to proceed for the time indicated for each test in Table 1, and was terminated by the introduction of a quench buffer comprising 4.2 M potassium phosphate buffer, pH 7.2. The results of the test were evaluated using a series of 10-fold dilutions as needed to determine, on a standard plating agar, the titer of bacteria that survived the antimicrobial treatment. The plating medium was Salmonella Shigella agar, a medium that would allow the growth of most bacteria. The reduction in the bacteria count is expressed as the “log kill.” “Log kill” is generally defined as log10[initial cfu/ml]−log10[remaining cfu/ml].
An experiment was performed using the same protocol as in Example 1. In this case, the target bacteria was a sample of E. coli (given the name “SAC-2”) taken from a local sewer facility. The isolate was characterized using standard microbiological methods including selective and indicative culture media and other metabolic tests. The results obtained were consistent with E. coli.
(§3) The duration of treatment was 15 seconds at an ambient temperature of 76 deg F.

Assay [2] deals with Escherichia coli (ATCC 12435). Briefly: Log kill of E. coli ATCC 12435 by lactic/citric acid mixtures. The following applies: 2.5% acid, total; 15 seconds, 76 deg F. How it is done:
as §2, §3
The same tests were repeated using E. coli ATCC 12435 instead of the SAC-2 E. coli, and tryptic soy agar was employed instead of Salmonella Shigella agar.

In the case of `O=C(O)CC(O)(CC(=O)O)C(=O)O` [citric acid], in the assay with Salmonella culture (M61) (2.5 wt % aqueous solution, 80 sec., room temperature 71 deg. F), the “Salmonella (M61) Log Kill” value stood at 0.29 log kill. Besides, in the assay on Salmonella culture (M61) (2.5 wt. % solution, 80 seconds), the “performance compared to that of lactic acid, Salmonella M61 log kill” value is recorded as “poor”. The “Log Kill Salmonella (ATCC 14028)” value in assay [1] (2.0% total acid) stood at 0.444; in assay [1] ([…] total acid), 0.322. Also, the “Relative Kill Salmonella (ATCC 14028)” value in assay [1] (2.0% total acid, 40/40 = 1) was found to be 0.663; in assay [1] ([…] total acid, 80/0 = 1), 0.422. The “Citric Acid Efficacy Log kill (75 F., 20 sec)” value in assay [1] (2.5 % citric acid, Salmonella ATCC 14028, 75 F., 20 sec) is recorded as 0.555. Further, the “Salmonella (ATCC 14028) Log Kill” value in assay [1] (2.5 wt % aqueous solution, 15 sec.) is reported as 0.56 log kill.

Turning to `CC(O)C(=O)O` (stereo not shown) [lactic acid], the “Log Kill Escherichia coli (SAC-2)” value with Escherichia coli (SAC-2) is reported as 0.953. Besides, in assay [2], the “Log Kill Escherichia coli (ATCC 12435)” value came out at 1.93.
